According to patent publication US11634443B2, “Treprostinil prodrugs” (United Therapeutics Corporation, priority 2019, dated 2023):
Read-outs that look alike come from different tables or passages of the source.

How the values were obtained:
[1] = Measured solubility at pH 6.5; type: physicochemical
[2] = Plasma stability and formation of treprostinil, rat plasma; type: in vitro ADME; conditions: for Formation of Treprostinil, Concentration: prodrug dosed at 1 μM
Experimental: (§1) Studies were carried out in mixed-gender human plasma male Sprague-Dawley rat plasma, and male Beagle dog plasma. All plasma was obtained from Bioreclamation and collected on K2EDTA. Plasma was adjusted to pH 7.4 prior to initiating the experiments. DMSO stocks were first prepared for the test articles. […] The vials were kept in a benchtop Thermomixer® for the duration of the experiment. […] Samples were stored at 4° C. until the end of the experiment. After the final time point was sampled, the plate was mixed and then centrifuged at 3000 rpm for 10 minutes.

[3] = target: T1, prostaglandin I2 (PGI2) receptor (IP) (Homo sapiens, UniProt P43119); assay: IP receptor cAMP assay (agonist mode); type: cell-based; conditions: for Activity, IP Relative to Tre: relative to treprostinil EC50 values, image character = too high to realistically calculate
T1 construct: expressed in transfected cells; host or cells: CHO-K1
Experimental: (§2) Assay Buffer: • EP1 Calcium and DP1 cAMP Assays: HBSS plus 20 mM HEPES • EP2 and IP1 cAMP Assays: 1 mM IBMX in HBSS plus 20 mM HEPES
(§3) Cells were thawed from frozen cells and resuspended in assay buffer at desired concentrations. cAMP or Calcium assays were performed according to the manufacturer's protocol using Multiscreen™ TR-FRET cAMP 1.0 No Wash Assay Kit or Multiscreen™ Calcium 1.0 No Wash Kit.
(§4) Gas Cyclic AMP (cAMP) Assay: In agonist mode testing, cells were seeded in a 384-well plate at an appropriate density and then were treated with compounds and incubated at 37° C. for 20 minutes. The reaction was terminated by sequentially adding sequentially adding trFluor™ Eu-labeled cAMP and trFluor™ 650-labeled anti-cAMP antibody in lysis buffer. […] All testing wells contained 0.1% DMSO in the final concentrations.
(§5) Data in graphs are represented in Mean±SD. Dose-dependent responses were fitted with sigmoidal dose-response curves allowing variable slopes using GraphPad Prism version 6 (Graphpad Prism).
(§6) These studies used cell lines overexpressing either human IP, EP2 or DP1, or EP1 receptors, and following incubation with varying concentrations of compounds, cAMP levels were measured using Fluorescence Resonance Energy Transfer (FRET).

[4] = Stability and formation of treprostinil in dog cryopreserved hepatocytes
[5] = Stability and formation of treprostinil in human cryopreserved hepatocytes
[6] = Hydrolysis of treprostinil prodrugs to treprostinil at pH 6, 7 and 8 and 40 C; type: physicochemical
Source text: Tables 26, 27 and 28 present data for hydrolysis of selected treprostinil prodrugs at pH 6, 7 and 8, respectively, and 40 C.

[7] = Stability and formation of treprostinil in rat cryopreserved hepatocytes
[8] = target: T2, prostaglandin D2 (PGD2) receptor 1 (DP1) (Homo sapiens, UniProt Q13258); assay: DP1 receptor cAMP assay (agonist mode); type: cell-based; conditions: for Activity, DP1 Relative to Tre: relative to treprostinil EC50 values, * partial agonists or ambiguous dose-response curves; for Activity at the DP1 receptor compared to treprostinil: cAMP, cells overexpressing human DP1
T2 construct: expressed in transfected cells; host or cells: HEK293T
T2 sequence (Q13258 1-359): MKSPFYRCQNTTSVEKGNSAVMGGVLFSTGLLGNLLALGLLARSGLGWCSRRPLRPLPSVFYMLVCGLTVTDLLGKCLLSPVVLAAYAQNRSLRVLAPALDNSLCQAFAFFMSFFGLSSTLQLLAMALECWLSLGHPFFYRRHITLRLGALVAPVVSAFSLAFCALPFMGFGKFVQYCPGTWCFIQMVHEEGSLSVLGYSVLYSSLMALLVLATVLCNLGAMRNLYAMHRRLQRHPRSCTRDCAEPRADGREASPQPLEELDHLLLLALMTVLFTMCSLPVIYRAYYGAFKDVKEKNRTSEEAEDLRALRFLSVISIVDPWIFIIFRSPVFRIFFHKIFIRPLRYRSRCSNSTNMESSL

[9] = Plasma stability and formation of treprostinil, human plasma; type: in vitro ADME; conditions: for Formation of Treprostinil, Concentration: prodrug dosed at 1 μM
Experimental: as §1

[10] = Stability and formation of treprostinil in human subcutaneous skin homogenate; conditions: pooled human skin homogenate, 1 μM
Experimental: For each of the test articles, 495 μL of skin homogenate was added to triplicate centrifuge tubes. To each tube, 5 μL of a 100 μM solution of test article was added, for a final test article dosing concentration of 1 μM. The tubes were placed onto a Thermomixer and maintained at 37° C. with gentle shaking for the duration of the experiment. At each time point (0, 30, 60, and 120 minutes), a 100 μL aliquot was removed from each tube and combined with 200 μL of acetonitrile to stop the stability reaction. The tubes were mixed and centrifuged at 3000 rpm for 10 minutes. Aliquots of supernatant were removed and diluted 1:1 with distilled water containing internal standard (2 μM treprostinil-d4). Calibration standards for the treprostinil analysis were prepared for each test article in a surrogate matrix (supernatant from a mixture of 1:2 human plasma:acetonitrile), at concentrations ranging from 1 μM to 1 nM. Calibration standards were also diluted 1:1 with distilled water containing internal standard.

[11] = Plasma stability and formation of treprostinil, dog plasma; type: in vitro ADME; conditions: for Formation of Treprostinil, Concentration: prodrug dosed at 1 μM
Experimental: as §1

[12] = target: T3, prostaglandin E2 (PGE2) receptor 2 (EP2) (Homo sapiens, UniProt P43116); assay: EP2 receptor cAMP assay (agonist mode); type: cell-based; conditions: cAMP, cells overexpressing human EP2
T3 construct: expressed in transfected cells; host or cells: HEK293T
Experimental: as §2, §3, §4, §5, §6

[13] = microsomes
Experimental: (§7) Mixed-gender human liver microsomes, male Sprague-Dawley rat liver microsomes, and male Beagle dog liver microsomes were purchased from XenoTech. The reaction mixture, minus NADPH, was prepared as described below. […] An aliquot of the reaction mixture (without cofactor) was equilibrated in a shaking water bath at 37° C. for 5 minutes. The reaction was initiated by the addition of cofactor, and the mixture was incubated in a shaking water bath at 37° C. Aliquots (200 μL) were withdrawn at 0, 10, 20, 30, and 60 minutes. Test article samples were immediately combined with 400 μL of ice-cold acetonitrile (ACN) to terminate the reaction. […] The samples were then mixed and centrifuged to precipitate proteins. Aliquots of the supernatant were removed, diluted 1:1 into distilled water containing internal standard, and analyzed by LC-MS/MS against calibration standards prepared in a matched matrix. All samples were analyzed for the dosed prodrugs as well as the drug, treprostinil. The test article concentration was compared to the concentration at time 0 to determine the percent of test article remaining at each time point. Half-lives and clearance were calculated using GraphPad software, fitting to a single-phase exponential decay equation.
Liver Microsomes 0.5 mg/mL
Potassium Phosphate, pH 7.4 100 mM

[14] = Stability and formation of treprostinil in simulated intestinal fluid; type: in vitro ADME; conditions: for Formation of Treprostinil, Concentration: SIF, prodrug dosed at 1 μM
Experimental: Studies were carried out in simulated intestinal fluid (SIF). SIF was prepared by dissolving 6.8 g of KH2PO4 in 250 mL of water, mixing, and then adding 77 mL of 0.2 N NaOH and 750 mL of water. Pancreatin (10 g) was added, mixed, and the pH was adjusted to pH 6.8 with 10 N NaOH. DMSO stocks were first prepared for the test articles. Aliquots of the DMSO solutions were dosed into 0.4 mL of matrix, which had been pre-warmed to 37° C., at a final test article concentration of 1 μM. The vials were kept in a benchtop Thermomixer® for the duration of the experiment. A separate tube was dosed for each time point in each matrix. At the appropriate times (0, 15, 30, 60, and 120 minutes), 0.8 mL of acetonitrile (ACN) containing 1% formic acid and internal standard was added directly to a single tube. Samples were mixed and then immediately stored at 4° C. until the end of the experiment. After the final time point was sampled, the plate was mixed and then centrifuged at 3000 rpm for 10 minutes. Aliquots of the supernatant were removed, diluted 1:1 into distilled water containing internal standard, and analyzed by LC-MS/MS against calibration standards prepared in a matched matrix. All samples were analyzed for the dosed prodrugs as well as the drug, treprostinil. The test article concentration was compared to the concentration at time 0 to determine the percent of test article remaining at each time point. Half-lives were calculated using GraphPad software, fitting to a single-phase exponential decay equation.

[15] = microsomes; remark: listed apart in the source
Experimental: as §7
Liver Microsomes 0.5 mg/mL
Potassium Phosphate, pH 7.4 100 mM

[16] = cAMP, cells overexpressing human IP
[17] = Table 24, image character = too high to realistically calculate

T1 sequence (P43119 whole entry): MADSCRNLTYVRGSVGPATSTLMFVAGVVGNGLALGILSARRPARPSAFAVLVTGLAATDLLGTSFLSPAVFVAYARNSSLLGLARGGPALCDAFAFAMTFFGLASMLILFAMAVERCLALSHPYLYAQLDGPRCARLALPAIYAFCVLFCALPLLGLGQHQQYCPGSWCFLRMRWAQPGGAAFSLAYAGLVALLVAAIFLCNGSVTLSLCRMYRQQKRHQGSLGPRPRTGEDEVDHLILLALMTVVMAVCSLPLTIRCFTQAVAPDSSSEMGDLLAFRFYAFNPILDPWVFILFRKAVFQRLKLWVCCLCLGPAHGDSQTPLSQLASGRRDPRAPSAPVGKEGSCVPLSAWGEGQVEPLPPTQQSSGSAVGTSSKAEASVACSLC
T3 sequence (P43116 whole entry): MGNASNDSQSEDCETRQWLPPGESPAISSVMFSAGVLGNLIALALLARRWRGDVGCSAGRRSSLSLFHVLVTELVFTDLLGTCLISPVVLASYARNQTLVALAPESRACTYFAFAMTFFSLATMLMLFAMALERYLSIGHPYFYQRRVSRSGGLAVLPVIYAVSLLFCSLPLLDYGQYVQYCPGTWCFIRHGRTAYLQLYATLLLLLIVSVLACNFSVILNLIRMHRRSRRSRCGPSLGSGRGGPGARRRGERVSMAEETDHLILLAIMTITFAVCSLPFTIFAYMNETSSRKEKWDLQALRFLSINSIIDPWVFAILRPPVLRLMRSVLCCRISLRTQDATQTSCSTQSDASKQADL

Molecule: CCCCC[C@@H](CC[C@@H]1[C@H]2Cc3cccc(OCC(=O)O)c3C[C@H]2C[C@H]1O)OP(=O)(O)O [VI]
- Measured Sol [1]: > 10 mg/mL

Molecule: treprostinil diphosphate [Prodrug LXXIII]
- Formation of Treprostinil, Concentration ([2]; 0 min): 0 µM
- Formation of Treprostinil, Concentration ([2]; 60 mm): 0 µM
- Formation of Treprostinil, Concentration ([2]; 15 min): 0 µM
- Formation of Treprostinil, Concentration ([2]; 30 min): 0 µM
- Formation of Treprostinil, Concentration ([2]; 120 min): 0 µM
- Activity, IP Relative to Tre ([3]; Table 24, * partial agonists or ambiguous dose-response curves): 208x
- Activity, IP Relative to Tre ([3]; Table 25): 208x
- Fold less active than treprostinil at the IP receptor [3, 16]: approximately 200 fold
- Treprostinil Concentration, 15 min [4]: 0.0506 µM
- Treprostinil Concentration, 15 min [5]: 0.0163 µM
- Hydrolysis of prodrug to treprostinil, % Area, t = 1 week ([6]; pH 6, 40 C): 0.00 % Area
- Hydrolysis of prodrug to treprostinil, % Area, t = 2 weeks ([6]; pH 6, 40 C): 0.00 % Area
- Hydrolysis of prodrug to treprostinil, % Area, t = 3 weeks ([6]; pH 6, 40 C): 0.00 % Area
- Hydrolysis of prodrug to treprostinil, % Area, t = 1 week ([6]; pH 7, 40 C): 0.00 % Area
- Hydrolysis of prodrug to treprostinil, % Area, t = 2 weeks ([6]; pH 7, 40 C): 0.00 % Area
- Hydrolysis of prodrug to treprostinil, % Area, t = 3 weeks ([6]; pH 7, 40 C): 0.00 % Area
- Hydrolysis of prodrug to treprostinil, % Area, t = 1 week ([6]; pH 8, 40 C): 0.00 % Area
- Hydrolysis of prodrug to treprostinil, % Area, t = 2 weeks ([6]; pH 8, 40 C): 0.00 % Area
- Hydrolysis of prodrug to treprostinil, % Area, t = 3 weeks ([6]; pH 8, 40 C): 0.00 % Area
- Treprostinil Concentration, 15 min [7]: 0.0097 µM
- Activity, DP1 Relative to Tre [8, 17]: 217x
- Activity, DP1 Relative to Tre ([8]; Table 25): 217x
- Activity at the DP1 receptor compared to treprostinil [8]: several hundred-fold less active
- Formation of Treprostinil, Concentration ([9]; 0 min): 0 µM
- Formation of Treprostinil, Concentration ([9]; 15 min): 0 µM
- Formation of Treprostinil, Concentration ([9]; 30 min): 0 µM
- Formation of Treprostinil, Concentration ([9]; 120 min): 0 µM
- Formation of Treprostinil, Concentration [9]: 0 µM
- Percent Remaining (Avg, n = 3) ([10]; 0 min): 100%
- Percent Remaining (Avg, n = 3) ([10]; 30 min): 86.2%
- Percent Remaining (Avg, n = 3) ([10]; 60 min): 71.2%
- Percent Remaining (Avg, n = 3) ([10]; 120 min): 64.0%
- Formation of Treprostinil, Concentration ([11]; 0 min): 0 µM
- Formation of Treprostinil, Concentration ([11]; 15 min): 0 µM
- Formation of Treprostinil, Concentration ([11]; 30 min): 0 µM
- Formation of Treprostinil, Concentration ([11]; 120 min): 0 µM
- Formation of Treprostinil, Concentration [11]: 0 µM
- Activity at the EP2 receptor compared to treprostinil [12]: inactive

Molecule: treprostinil dipropionate [Prodrug LXX]
- Percent Remaining ([2]; 0 min, 1 μM, 37° C.): 100%
- Formation of Treprostinil, Concentration ([2]; 0 min): 0 µM
- Half-Life ([2]; 1 μM, 37° C.): 1.7 h
- Formation of Treprostinil, Concentration ([2]; 60 mm): 0.0331 µM
- Percent Remaining ([2]; 15 min, 1 μM, 37° C.): 98.3%
- Formation of Treprostinil, Concentration ([2]; 15 min): 0.00392 µM
- Percent Remaining ([2]; 30 min, 1 μM, 37° C.): 80.3%
- Formation of Treprostinil, Concentration ([2]; 30 min): 0.0101 µM
- Percent Remaining ([2]; 60 min, 1 μM, 37° C.): 69.3%
- Percent Remaining ([2]; 120 min, 1 μM, 37° C.): 45.0%
- Formation of Treprostinil, Concentration ([2]; 120 min): 0.0768 µM
- Half-Life [13]: <0.167 h
- Activity at the IP receptor compared to treprostinil [3, 16]: inactive
- Treprostinil Concentration, 0 min [4]: 0.0959 µM
- Treprostinil Concentration, 15 min [4]: 0.736 µM
- Treprostinil Concentration, 30 min [4]: 0.597 µM
- Treprostinil Concentration, 60 min [4]: 0.511 µM
- Treprostinil Concentration, 120 min [4]: 0.445 µM
- CLint ([4]; hepatocytes): >0.0308 mL/min/mg protein
- Half-Life ([4]; hepatocytes): <0.25 h
- Treprostinil Concentration, 0 min [5]: 0.00542 µM
- Treprostinil Concentration, 15 min [5]: 0.638 µM
- Treprostinil Concentration, 30 min [5]: 0.556 µM
- Treprostinil Concentration, 60 min [5]: 0.482 µM
- Treprostinil Concentration, 120 min [5]: 0.413 µM
- Hydrolysis of prodrug to treprostinil, % Area, t = 1 week ([6]; pH 6, 40 C): 0.00 % Area
- Hydrolysis of prodrug to treprostinil, % Area, t = 2 weeks ([6]; pH 6, 40 C): 0.00 % Area
- Hydrolysis of prodrug to treprostinil, % Area, t = 3 weeks ([6]; pH 6, 40 C): 0.00 % Area
- Hydrolysis of prodrug to treprostinil, % Area, t = 1 week ([6]; pH 7, 40 C): 0.00 % Area
- Hydrolysis of prodrug to treprostinil, % Area, t = 2 weeks ([6]; pH 7, 40 C): 0.00 % Area
- Hydrolysis of prodrug to treprostinil, % Area, t = 3 weeks ([6]; pH 7, 40 C): 0.00 % Area
- Hydrolysis of prodrug to treprostinil, % Area, t = 1 week ([6]; pH 8, 40 C): 0.00 % Area
- Hydrolysis of prodrug to treprostinil, % Area, t = 2 weeks ([6]; pH 8, 40 C): 0.00 % Area
- Hydrolysis of prodrug to treprostinil, % Area, t = 3 weeks ([6]; pH 8, 40 C): 0.00 % Area
- Percent Remaining ([14]; SIF pH 6.8, 0 min, 1 μM, 37° C.): 100%
- Half-Life ([14]; SIF pH 6.8, 1 μM, 37° C.): >2 h
- Percent Remaining ([14]; SIF pH 6.8, 15 min, 1 μM, 37° C.): 97.2%
- Percent Remaining ([14]; SIF pH 6.8, 30 min, 1 μM, 37° C.): 104%
- Percent Remaining ([14]; SIF pH 6.8, 60 min, 1 μM, 37° C.): 93.6%
- Percent Remaining ([14]; SIF pH 6.8, 120 min, 1 μM, 37° C.): 86.2%
- Formation of Treprostinil, Concentration ([14]; 0 min): 0 µM
- Formation of Treprostinil, Concentration ([14]; 15 min): 0 µM
- Formation of Treprostinil, Concentration ([14]; 30 min): 0 µM
- Formation of Treprostinil, Concentration ([14]; 60 min): 0.00415 µM
- Formation of Treprostinil, Concentration ([14]; 120 min): 0.0720 µM
- Half-Life [15]: <0.167 h
- Treprostinil Concentration, 0 min [7]: 0 µM
- Treprostinil Concentration, 15 min [7]: 0.606 µM
- Treprostinil Concentration, 30 min [7]: 0.579 µM
- Treprostinil Concentration, 60 min [7]: 0.484 µM
- Treprostinil Concentration, 120 min [7]: 0.405 µM
- EC50 Fold Different from Treprostinil, DP1 Receptor ([8]; Table 20, agonist mode, NC = too inactive to realistically calculate, * partial agonists or odd dose-response curves): 410x*
- Activity, DP1 Relative to Tre [8, 17]: 410x
- Activity, DP1 Relative to Tre ([8]; Table 25): 410x
- Activity at the DP1 receptor compared to treprostinil [8]: several hundred-fold less active
- Percent Remaining ([9]; 0 min, 1 μM, 37° C.): 100%
- Formation of Treprostinil, Concentration ([9]; 0 min): 0 µM
- Half-Life ([9]; 1 μM, 37° C.): >2 h
- Percent Remaining ([9]; 15 min, 1 μM, 37° C.): 92.4%
- Formation of Treprostinil, Concentration ([9]; 15 min): 0 µM
- Percent Remaining ([9]; 30 min, 1 μM, 37° C.): 102%
- Formation of Treprostinil, Concentration ([9]; 30 min): 0 µM
- Percent Remaining ([9]; 60 min, 1 μM, 37° C.): 93.3%
- Percent Remaining ([9]; 120 min, 1 μM, 37° C.): 103%
- Formation of Treprostinil, Concentration ([9]; 120 min): 0 µM
- Formation of Treprostinil, Concentration [9]: 0 µM
- Percent Remaining ([11]; 0 min, 1 μM, 37° C.): 100%
- Formation of Treprostinil, Concentration ([11]; 0 min): 0 µM
- Half-Life ([11]; 1 μM, 37° C.): >2 h
- Percent Remaining ([11]; 15 min, 1 μM, 37° C.): 103%
- Formation of Treprostinil, Concentration ([11]; 15 min): 0 µM
- Percent Remaining ([11]; 30 min, 1 μM, 37° C.): 116%
- Formation of Treprostinil, Concentration ([11]; 30 min): 0 µM
- Percent Remaining ([11]; 60 min, 1 μM, 37° C.): 97.4%
- Percent Remaining ([11]; 120 min, 1 μM, 37° C.): 91.4%
- Formation of Treprostinil, Concentration ([11]; 120 min): 0 µM
- Formation of Treprostinil, Concentration [11]: 0 µM
- Activity at the EP2 receptor compared to treprostinil [12]: inactive
